According to patent publication US5571788A, “Stable calcitonin pharmaceutical compositions” (Ciba-Geigy Corporation, priority 1994, dated 1996):

Assays:
[1] = Long-time hCT stability of aqueous solutions (solution remains clear, free of fibrils); details: for time solution is stable: Example 1 repeated (5 mg/ml hCT) with acetic acid replaced by the named acid
[2] = Ability of an acid to produce a stable hCT solution (stored 24 hours at 25° C., solution remains clear); type: physicochemical; details: aqueous hCT solution with the acid, no salt or buffer
[3] = Absorption spectra and HPLC of stored hCT solutions; type: physicochemical; details: hCT stored in aqueous solutions of Example 1
[4] = Extrapolated time of fibrillation (ln/ln plot of fibrillation time against hCT concentration); type: physicochemical; details: 5-9 mg/ml hCT in 0.001% acetic acid, 4° C.; ln/ln plot from solutions up to 100 mg/ml hCT
Procedure: The stability of the solution is dependent on the concentration. We have found a linear correlation between the natural logarithm of fibrillation time and the natural logarithm of hCT concentration at a given temperature. From measurements on hCT solutions with concentrations up to 100 mg/ml hCT and using the 1n/1n plot, stability of more than 5 years at 4° C. is predicted for solutions with 5-9 mg/ml hCT in 0.001% acetic acid.
Solutions of hCT are made using different concentrations of methyl cellulose (MC) and hydroxypropyl methyl cellulose (HPMC) with and without 0.01% benzethonium chloride (BTC), in one case also with 0.001% acetic acid (AA) and in one case using 0.5% dextran (D). The extrapolated time of fibrillation in years is given for hCT concentration of 3.3 mg/ml and 6.6 mg/ml.

[5] = SUNTEST accelerated light exposure, stability against fibril formation; type: physicochemical; details: Example 3 solutions with 0.5% hydroxypropylmethylcellulose; after 24 hours at 47° C. in SUNTEST machine
[6] = Chemical stability tests (Roger's test); type: physicochemical; details: 3.3 mg/ml hCT, 0.5% methyl cellulose, 0.02% benzethonium chloride, 0.001% acetic acid; in 5 years, storage at 10° C.
Procedure: A solution of hCT is made containing 3.3 mg/ml hCT, 0.5% methyl cellulose, 0.02% benzethonium chloride and 0.001% acetic acid. Chemical stability tests (Roger's test) predicted only 0.02% chemical decomposition of the hCT in 5 years for storage at 10° C.

Row | Compound | time solution is stable [1] | acid forms stable hCT solution [2] | also measured
1 | O=C(O)C(O)C(O)C(=O)O (racemic) [DL-tartaric acid] | over 4 days | form stable solutions | –
2 | N[C@H](CCC(=O)O)C(=O)O [D-glutamic acid] | – | do not form stable solutions | –
3 | N[C@@H](CCC(=O)O)C(=O)O [L-glutamic acid] | over 4 days | – | –
4 | O=C(O)C(O)C(O)C(=O)O [L-α-tartaric acid] | over 4 days | form stable solutions | –
5 | CC(=O)O [acetic acid] | – | form stable solutions | stabilising conditions for hCT solution ([1]; acid concentration 0.001%): best case
6 | O=C(O)CCCCC(=O)O [adipic acid] | over 4 days | form stable solutions | –
7 | O=C1O[C@H]([C@@H](O)CO)C(O)=C1O [ascorbic acid] | over 4 days | form stable solutions | –
8 | N[C@@H](CC(=O)O)C(=O)O [aspartic acid] | – | do not form stable solutions | –
9 | O=C(O)CC(O)(CC(=O)O)C(=O)O [citric acid] | over 4 days | form stable solutions | –
10 | O=C(O)CN(CCN(CC(=O)O)CC(=O)O)CC(=O)O [ethylene - diamine tetraacetic acid] | – | form stable solutions | –
11 | O=CO [formic acid] | over 4 days | form stable solutions | –
12 | O=C(O)[C@H](O)[C@@H](O)[C@H](O)[C@H](O)CO [gluconic acid] | – | do not form stable solutions | –
13 | O=C(O)CCCC(=O)O [glutaric acid] | over 4 days | form stable solutions | –
14 | Cl [hydrochloric acid] | over 4 days | form stable solutions | –
15 | O=C(O)/C=C\C(=O)O [maleic acid] | – | do not form stable solutions | –
16 | O=C(O)CC(=O)O [malonic acid] | over 4 days | form stable solutions | –
17 | Oc1ccccc1 [phenol] | – | form stable solutions | –
18 | O=C(O)CCC(=O)O [succinic acid] | over 4 days | – | –
19 | O=S(=O)(O)O [sulphuric acid] | – | do not form stable solutions | –
20 | human calcitonin [hCT] | – | – | change in hCT properties (absorption spectra and HPLC) [3]: no change in hCT properties; time solutions are stable ([1]; Example 3: Example 1 solutions (5 mg/ml hCT, acetic acid) plus 0.5% hydroxypropylmethylcellulose, 4° C., 22° C. and 37° C., in the dark or in daylight): more than 3.5 months; predicted stability of hCT solution [4]: more than 5 years; stability against fibril formation under accelerated light exposure [5]: stable against fibril formulation; predicted chemical decomposition of the hCT [6]: 0.02%
